Values after ≈ are worked out from the molar mass of the structure shown. Read-outs that look alike come from different tables or passages of the source.
Experiments:
L1210 cells = assay: In vitro cytotoxicity, microculture tetrazolium assay (MTA); assay type: cell-based; conditions: Mus musculus
Description: Cytotoxicity was tested against L1210 (mouse leukemic cell line) cells using the MTA assay.
L1210 cells were cultivated in RPMI 1640 medium (Gibco) supplemented with 10% fetal calf serum, 2 mM L-glutaine, 100 units/mL penicillin, 100 µg/mL streptomycin, and 10 mM HEPES buffer (pH=7.4). Cytotoxicity was measured by the microculture tetrazolium assay (MTA). Cells were exposed to graded concentrations of drug (nine serial dilutions in triplicate) for 48 h. Results are expressed as IC50, the concentration which reduced by 50% the optical density of treated cells with respect to the optical density of untreated controls.

Solubility in water = assay type: physicochemical; conditions: for solubility: water, in water / aqueous solvents
[1] = Stability in phosphate buffer solution followed by HPLC; assay type: physicochemical; conditions: phosphate buffer pH 7 (0.02 M, pH 7.2), 37° C.
Description: The stability of 1a was followed by HPLC measurements in buffer solution at pH 7 for 24 hours. More than 90% of the prodrug was recovered after that time, meaning that the prodrug 1a is stable in vitro.
(§1) Good separation in a short delay was obtained with a reversed-phase Phenyl analytical column (Spherisorb 250×4,6) using isocratic conditions (1 mL/min) of 60% phosphate buffer (0.02 M, pH 3) and 40% acetonitrile with UV detection at 254 nm. Using these conditions the retention time of etoposide, prodrug, and cyclized spacer were 4.9, 3.4, 5.8. min., respectively.
A solution of […] of prodrug 1a in 0.02 M phosphate buffer (pH 7.2) was incubated for various times at 37° C. Aliquots (100 μL) were taken at various times and analyzed by HPLC after dilution with eluent (300 μL).

[2] = molecular target: E. coli β-D-glucuronidase (Escherichia coli, UniProt P05804); assay: Enzymatic cleavage by E. coli β-D-glucuronidase (kinetics of drug release, HPLC); assay type: biochemical; conditions: E. coli β-D-glucuronidase in phosphate buffer; 500 μg/mL prodrug, 20 μg/mL E. coli β-D-glucuronidase, phosphate buffer pH 7.2, 37° C.
E. coli β-D-glucuronidase, sequence (P05804 whole entry): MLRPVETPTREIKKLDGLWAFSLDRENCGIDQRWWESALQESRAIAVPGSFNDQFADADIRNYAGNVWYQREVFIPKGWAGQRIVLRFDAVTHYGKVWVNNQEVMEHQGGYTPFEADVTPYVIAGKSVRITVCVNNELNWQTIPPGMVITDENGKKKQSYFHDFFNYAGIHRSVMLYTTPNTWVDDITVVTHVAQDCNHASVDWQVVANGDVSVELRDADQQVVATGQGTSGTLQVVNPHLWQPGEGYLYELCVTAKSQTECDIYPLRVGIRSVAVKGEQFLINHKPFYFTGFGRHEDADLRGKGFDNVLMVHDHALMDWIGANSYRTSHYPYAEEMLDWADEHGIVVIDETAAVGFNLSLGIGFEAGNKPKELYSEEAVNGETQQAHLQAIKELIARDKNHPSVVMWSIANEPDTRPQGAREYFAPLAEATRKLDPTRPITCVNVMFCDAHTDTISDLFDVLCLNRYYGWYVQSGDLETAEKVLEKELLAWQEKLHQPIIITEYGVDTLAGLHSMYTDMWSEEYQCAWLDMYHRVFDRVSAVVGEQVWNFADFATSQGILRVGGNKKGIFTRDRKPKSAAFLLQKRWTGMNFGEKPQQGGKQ
Description: Prodrug 1a (500 μg/mp) was incubated with E. coli β-D-glucuronidase (20 μ/mL). Aliquot samples were analysed by IPLC at different times (FIG. 1: Enzymatic cleavage of prodrug 1a).
as §1
Hydrolysis was investigated by incubating a solution of 500 μg/mL of prodrug 3 and 20 μg/mL of E. coli β-D-glucuronidase in 0.02 M phosphate buffer (pH 7.2) at 37° C. Aliquots (100 μl) were taken at various times and analyzed by HPLC after dilution with 300 μl of eluent.

| SMILES | IC50 (L1210 cells; L1210 cell line, 48 h exposure, without enzyme, read-out: IC50) | solubility (Solubility in water) | prodrug recovered/remaining after 24 hours [1] | IC50 (L1210 cells; L1210, 48 h) | IC50 (L1210 cells; L1210, read-out: IC50 after hydrolysis by β-glucuronidase) | fold more soluble than the corresponding drug (Solubility in water; in water, comparable conditions, versus etoposide) | melting point | half-life at 500 μg/mL [2] |
| --- | --- | --- | --- | --- | --- | --- | --- | --- |
| COc1cc([C@@H]2c3cc4c(cc3[C@@H](O[C@@H]3O[C@@H]5CO[C@@H](C)O[C@H]5[C@H](O)[C@H]3O)[C@H]3COC(=O)[C@H]23)OCO4)cc(OC)c1O [etoposide, reference compound] | 834 nM | 0.1 mg/mL (≈ 0.17 mM) | – | – | – | – | – | – |
| COc1cc([C@@H]2c3cc4c(cc3C(OC3OC5COC(C)O[C@H]5C(O)[C@@H]3O)[C@H]3COC(=O)[C@H]23)OCO4)cc(OC)c1OC(=O)N(C)c1cc([N+](=O)[O-])ccc1O[C@@H]1OC(C(=O)O)[C@@H](O)C(O)C1O (stereo partly drawn) [prodrug 1a] | – | ~20 mg/mL (≈ 20.9 mM) | More than 90% | 50200 nM | 930 nM | approximately 200 fold | 186 °C | < 25 min |

Reference: patent US20050009759A1 (priority 2001, published 2005)
